Paper PMC7665585, “Antidepressive effect of an inward rectifier K^+ channel blocker peptide, tertiapin-RQ” (PLoS ONE, 2020)
Bridge positions count the residues as written; N and C are the ends. Peptide text beside a SMILES is read from it.

Key:
Format in all cases: in vivo, mouse
[1] = tested on: Male ICR mice; experiment: Tail suspension test (TST); conditions: 750 pmole i.c.v., 30 min before test, 5 min recording
Experimental: (§1) We performed mouse behavioral experiments in accordance with our previous study. Male ICR mice (n = 199 in total) aged 5 weeks old were purchased from Shimizu Laboratory Supplies (Kyoto, Japan) and maintained in an animal facility for 7–12 days. They had free access to food and water and were kept in a 12-h light/dark cycle (08:00–20:00). Experiments were carried out between 11:00 and 17:00 in a quiet and air-conditioned experimental room, to which mice were habituated for 30–60 min before each experiment. Animal experiments were performed in accordance with the guidelines of the Physiological Society of Japan and were approved by the Committee for Animal Experiments of Kurashiki University of Science and the Arts. Peptides were dissolved in phosphate-buffered saline (PBS). Peptides were injected intracerebroventricularly (i.c.v.) 30 min before behavioral tests (typically 5 μL/mouse), according to a previous study. The mouse was placed into an anesthetizing jar, to which isoflurane (0.2 mL) was added immediately before. After confirming that the mouse was deeply anesthetized we injected the peptide into the right cerebral ventricle over 30 seconds and the injection needle was kept for 1 min after the injection (i.c.v. coordinates: 0 mm caudal to bregma, 1.0 mm lateral to the midline, and 3.5 mm below the skull). The mouse was placed in a cage set on a heating pad (approximately 33°C) for a few minutes until it spontaneously started to move, and then it was put back into its home cage. Each animal was used only once, except for the wheel running test, which was carried out immediately after the elevated plus-maze.
The tail suspension test (TST) was performed in accordance with the method reported previously. The mouse was hung on a hook using adhesive tape placed 2 cm from the extremity of its tail 50 cm above a table. The amount of time spent immobile was recorded for 5 min.

[2] = tested on: Male ICR mice; experiment: Open field test (OFT); conditions: i.c.v., 5 min
Experimental: as §1
The open-field test (OFT) was performed in accordance with a previous report. The open-field consisted of a square (90 × 90 cm), in which the floor was divided into 16 equal squares. After a mouse was placed in a corner of the open field facing the wall, the number of the entries into the central squares and whole line crossings were counted for 5 min. After the removal of the animal, the apparatus was cleaned and wiped.

[3] = tested on: Male ICR mice; experiment: Balance beam test; conditions: i.c.v.; 10 mm and 6 mm beams, central 60 cm
Experimental: We performed mouse behavioral experiments in accordance with our previous study. Male ICR mice (n = 199 in total) aged 5 weeks old were purchased from Shimizu Laboratory Supplies (Kyoto, Japan) and maintained in an animal facility for 7–12 days. They had free access to food and water and were kept in a 12-h light/dark cycle (08:00–20:00). Experiments were carried out between 11:00 and 17:00 in a quiet and air-conditioned experimental room, to which mice were habituated for 30–60 min before each experiment. Animal experiments were performed in accordance with the guidelines of the Physiological Society of Japan and were approved by the Committee for Animal Experiments of Kurashiki University of Science and the Arts. Peptides were dissolved in phosphate-buffered saline (PBS). Peptides were injected intracerebroventricularly (i.c.v.) 30 min before behavioral tests (typically 5 μL/mouse), according to a previous study. The mouse was placed into an anesthetizing jar, to which isoflurane (0.2 mL) was added immediately before. […]
Motor coordination was assessed by measuring the ability to traverse a narrow beam to reach a familiar cage. […] The time required to cross the central 60 cm of the beam was measured.

SMILES	immobile time in TST [1]	entries to the central area in OFT [2]	number of total line crossings in OFT [2]	central line crossings in OFT ([2]; n = 6 and 7)	time required to cross the beam [3]
CC[C@H](C)[C@@H]1NC(=O)[C@H](CCCNC(=N)N)NC(=O)[C@H](CC(N)=O)NC(=O)[C@@H]2CSSC[C@@H](C(=O)NCC(=O)N[C@@H](CCCCN)C(=O)N[C@@H](CCCCN)C(N)=O)NC(=O)[C@H](CCCCN)NC(=O)[C@H](CCCCN)NC(=O)[C@H](Cc3c[nH]c4ccccc34)NC(=O)[C@H](CSSC[C@H](NC(=O)[C@H](CC(C)C)NC(=O)[C@H](C)N)C(=O)N[C@@H](CC(N)=O)C(=O)N2)NC(=O)[C@H](CCC(N)=O)NC(=O)[C@H](CC(C)C)NC(=O)[C@@H]2CCCN2C(=O)[C@H]([C@@H](C)CC)NC(=O)[C@H]([C@@H](C)CC)NC1=O [Peptide 3, TPN-LQ] (H-ALCNCNRIIIPLQCWKKCGKK-NH2; disulfide 3-14, 5-18; N-terminus and C-terminus assumed)	decreased the immobile time	decreased	decreased	decreased	–
CC[C@H](C)[C@@H]1NC(=O)[C@H](CCCNC(=N)N)NC(=O)[C@H](CCCNC(=N)N)NC(=O)[C@H](CC(N)=O)NC(=O)[C@@H]2CSSC[C@@H](C(=O)NCC(=O)N[C@@H](CCCCN)C(=O)N[C@@H](CCCCN)C(N)=O)NC(=O)[C@H](CCCCN)NC(=O)[C@H](CCCCN)NC(=O)[C@H](Cc3c[nH]c4ccccc34)NC(=O)[C@H](CSSC[C@H](NC(=O)[C@H](CC(C)C)NC(=O)[C@H](C)N)C(=O)N[C@@H](CC(N)=O)C(=O)N2)NC(=O)[C@H](CCC(N)=O)NC(=O)[C@H](Cc2c[nH]cn2)NC(=O)[C@@H]2CCCN2C(=O)[C@H]([C@@H](C)CC)NC1=O [Peptide 2, TPN-RQ] (H-ALCNCNRRIIPHQCWKKCGKK-NH2; disulfide 3-14, 5-18)	–	–	–	–	longer
